Data on 21 compounds can be found in patent US8017612B2, “Piperazine compound and use thereof as a HCV polymerase inhibitor” (priority 2006, dated 2011).

As usually defined, the IC50 is the point on the concentration scale where inhibition reaches its midpoint. Higher therefore signals weaker potency in that assay.

Counter-ions that a name gives are not always drawn. Some results are limits rather than exact numbers.

Test [1] addresses T1, HCV polymerase (NS5B) type 1a (Hepatitis C virus genotype 1a, UniProt P26664).
T1 construct: made in house; host or cells: Escherichia coli (by the 'similar method' of the 1b enzyme)
The test is described as follows: Assay of enzyme (HCV polymerase) inhibitory activity, type 1a enzyme. The class given is biochemical, HCV type 1a (cloned from the blood of patients). The procedure, abridged: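 Patient-derived type 1a NS5B (C-terminal 47-aa deletion, His-tagged, E. coli-expressed) at 1.5 μg/ml was reacted with 5 μg/ml 3′UTR-containing substrate RNA, 50 μM ATP/GTP/CTP, 2 μM UTP plus [3H]UTP, pH 7.5, 25° C for 60 min. TCA-precipitated RNA radioactivity was counted; IC50 from ± compound.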

For test [2], the target named is T2, HCV polymerase (NS5B) type 1b (Hepatitis C virus genotype 1b, UniProt P26663).
T2 construct: a region encoding NS5B (J Virol 1991 March, 65(3), 1105-13, 544 amino acids after deletion of 47 amino acids on the C-terminal); 6xHis (C); made in house; host or cells: Escherichia coli
The test is described as follows: Assay of enzyme (HCV polymerase) inhibitory activity, type 1b enzyme. In kind it is biochemical, HCV BK strain (type 1b). An outline of the steps: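 NS5B from HCV BK strain (type 1b), C-terminal 47 aa deleted, C-terminal His6-tagged, E. coli-expressed, 0.5 μg/ml, with ~450 nt substrate RNA carrying the 3′ UTR (polyU, 3′X) at 5 μg/ml. Incubation 60 min at 25 °C with 50 μM ATP/GTP/CTP, 2 μM UTP plus [3H]UTP, pH 7.5 Tris.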

The mark [3] stands for this setting: HCV polymerase inhibitory activity (IC50), 1a, type 1a enzyme 1.5 μg/ml, 25° C., 60 min.
Where [4] appears, read: HCV polymerase inhibitory activity (IC50), 1b, type 1b enzyme 0.5 μg/ml, 25° C., 60 min.
Setting [5] is: HCV polymerase inhibitory activity IC50, 1a, type 1a enzyme.
The mark [6] stands for this setting: HCV polymerase inhibitory activity IC50, 1b, type 1b enzyme.

Regarding `CC(=O)N1CCN(S(=O)(=O)c2ccc(OC(F)(F)F)cc2)[C@@H](C(=O)NCC2CCNCC2)C1` [Example 654, (R)-4-acetyl-1-(4-trifluoromethoxy-benzenesulfonyl)-piperazine-2-carboxylic acid (piperidin-4-ylmethyl)-amide hydrochloride], the IC50 in test [1] (setting [3]) and in test [2] (setting [4]) was more than 1000 nM throughout.
For `CC(C)c1ccc(CNC(=O)[C@H]2CN(C(=O)CNCCC(=O)O)CCN2S(=O)(=O)c2ccc(C(F)(F)F)cc2)cc1` [Example 391, 3-{2-[(R)-3-(4-isopropyl-benzylcarbamoyl)-4-(4-trifluoromethyl-benzenesulfonyl)-piperazin-1-yl]-2-oxo-ethylamino}-propionic acid hydrochloride], the half-inhibitory concentration (IC50) in test [1] (setting [3]) and in test [2] (setting [4]) was 100 to 1000 nM each time.
As to `CCC(F)(F)c1ccc(CNC(=O)[C@H]2CN(c3ccnc(N)n3)CCN2S(=O)(=O)c2ccc(OC(F)(F)F)cc2)cc1` [Example 584, (R)-4-(2-amino-pyrimidin-4-yl)-1-(4-trifluoromethoxy-benzenesulfonyl)-piperazine-2-carboxylic acid 4-(1,1-difluoro-propyl)-benzylamide], the IC50 in test [1] (setting [3]) and in test [2] (setting [4]) was less than 100 nM in each case.
`CC(=O)N1CCN(S(=O)(=O)c2ccc(C(C)C)cc2)C(C(=O)NCc2ccc(N3CCCCC3)cc2)C1` (stereo not drawn) [Example 109, 4-acetyl-1-(4-isopropyl-benzenesulfonyl)-piperazine-2-carboxylic acid 4-piperidin-1-yl-benzylamide]: the IC50 in test [1] (setting [3]) and in test [2] (setting [4]) was more than 1000 nM in each case.
Turning to `CC(C)NC(=O)c1cncc2ncc(N3CCN(S(=O)(=O)c4ccc(OC(F)(F)F)cc4)[C@@H](C(=O)NCc4ccc(OC(F)(F)F)cc4)C3)nc12` [Example 871, 2-[(R)-4-(4-trifluoromethoxy-benzenesulfonyl)-3-(4-trifluoromethoxy-benzylcarbamoyl)-piperazin-1-yl]-pyrido[3,4-b]pyrazine-8-carboxylic acid isopropylamide], the 50% inhibitory concentration (IC50) in test [1] (setting [5]) and in test [2] (setting [6]) was less than 100 nM in each case.
On to `COC(=O)Cc1csc(N2CCN(S(=O)(=O)c3ccc(C(F)(F)F)cc3)[C@@H](C(=O)NCc3ccc(C(C)C)cc3)C2)n1` [Example 255, {2-[(R)-3-(4-isopropyl-benzylcarbamoyl)-4-(4-trifluoromethyl-benzenesulfonyl)-piperazin-1-yl]-thiazol-4-yl}-acetic acid methyl ester], for which the half-inhibitory concentration (IC50) in test [1] (setting [3]) and in test [2] (setting [4]) was less than 100 nM each time.
With `Cc1ncc2sc(N3CCN(S(=O)(=O)c4ccc(OC(F)(F)C(F)F)cc4)[C@@H](C(=O)NCc4ccc(OC(F)(F)F)cc4)C3)nc2n1` [Example 1051, (R)-4-(5-methyl-thiazolo[4,5-d]pyrimidin-2-yl)-1-[4-(1,1,2,2-tetrafluoro-ethoxy)-benzenesulfonyl]-piperazine-2-carboxylic acid 4-trifluoromethoxy-benzylamide], the IC50 in test [1] (setting [5]) and in test [2] (setting [6]) was less than 100 nM each time.
As for `O=C(NCc1ccc(OC(F)(F)F)cc1)[C@H]1CN(c2nn3c(C(F)(F)F)cc(=O)nc3s2)CCN1S(=O)(=O)c1ccc(OC(F)(F)F)cc1` [Example 1049, (R)-4-(7-oxo-5-trifluoromethyl-7H-[1,3,4]thiadiazolo[3,2-a]pyrimidin-2-yl)-1-(4-trifluoromethoxy-benzenesulfonyl)-piperazine-2-carboxylic acid 4-trifluoromethoxy-benzylamide], the IC50 in test [1] (setting [5]) and in test [2] (setting [6]) was less than 100 nM each time.
Take `COc1ccc(S(=O)(=O)N2CCN(C(C)=O)C[C@@H]2C(=O)NCc2ccc(C(C)C)cc2)cc1C1CCCC1` [Example 241, (R)-4-acetyl-1-(3-cyclopentyl-4-methoxy-benzenesulfonyl)-piperazine-2-carboxylic acid 4-isopropyl-benzylamide]: the IC50 in test [1] (setting [3]) and in test [2] (setting [4]) was 100 to 1000 nM in each case.
For `CCCc1ccc(CNC(=O)[C@H]2CN(c3cnc4c(C(=O)O)cccc4n3)CCN2S(=O)(=O)c2ccc(OC(F)(F)F)cc2)cc1` [Example 817, 2-[(R)-3-(4-propyl-benzylcarbamoyl)-4-(4-trifluoromethoxy-benzenesulfonyl)-piperazin-1-yl]-quinoxaline-5-carboxylic acid], the IC50 in test [1] (setting [5]) and in test [2] (setting [6]) was less than 100 nM throughout.
With `CC(C)c1ccc(CNC(=O)[C@H]2CN(c3nc(CCC(=O)O)cs3)CCN2S(=O)(=O)c2ccc(OC(F)(F)F)cc2)cc1` [Example 382, 3-{2-[(R)-3-(4-isopropyl-benzylcarbamoyl)-4-(4-trifluoromethoxy-benzenesulfonyl)-piperazin-1-yl]-thiazol-4-yl}-propionic acid], the concentration for half-maximal inhibition (IC50) in test [1] (setting [3]) and in test [2] (setting [4]) was 100 to 1000 nM throughout.
On to `CCCc1nc(C)c(CNC(=O)[C@H]2CN(c3nc4cn[nH]c(=O)c4s3)CCN2S(=O)(=O)c2ccc(OC(F)(F)F)cc2)s1` [Example 909, (R)-4-(7-oxo-6,7-dihydro-thiazolo[4,5-d]pyridazin-2-yl)-1-(4-trifluoromethoxy-benzenesulfonyl)-piperazine-2-carboxylic acid (4-methyl-2-propyl-thiazol-5-ylmethyl)-amide], for which the half-maximal inhibitory concentration (IC50) in test [1] (setting [5]) was 100 to 1000 nM; in test [2] (setting [6]), less than 100 nM.
The like results for `O=C(NCc1ccc(OC(F)(F)F)cc1)[C@H]1CN(c2nc3nc(C(F)(F)F)[nH]c(=O)c3s2)CCN1S(=O)(=O)c1ccc(OC(F)(F)F)cc1` [Example 1003, (R)-4-(7-oxo-5-trifluoromethyl-6,7-dihydro-thiazolo[4,5-d]pyrimidin-2-yl)-1-(4-trifluoromethoxy-benzenesulfonyl)-piperazine-2-carboxylic acid 4-trifluoromethoxy-benzylamide] were, in that order, less than 100 nM and less than 100 nM.
As for `CN(C)c1ccc(CNC(=O)[C@H]2CN(C(=O)CN3CCOCC3)CCN2S(=O)(=O)c2ccc(I)cc2)cc1` [Example 160, (R)-1-(4-iodo-benzenesulfonyl)-4-(2-morpholin-4-yl-acetyl)-piperazine-2-carboxylic acid 4-dimethylamino-benzylamide], the IC50 in test [1] (setting [3]) and in test [2] (setting [4]) was 100 to 1000 nM in each case.
With `CCCc1ccc(CNC(=O)[C@H]2CN(c3cnc4cncnc4n3)CCN2S(=O)(=O)c2ccc(OC(F)(F)F)cc2)cc1` [Example 574, (R)-4-pteridin-7-yl-1-(4-trifluoromethoxy-benzenesulfonyl)-piperazine-2-carboxylic acid 4-propyl-benzylamide], the IC50 in test [1] (setting [3]) and in test [2] (setting [4]) was less than 100 nM throughout.
Regarding `CCN(CC)c1nc2nc(Cl)nc(N3CCN(S(=O)(=O)c4ccc(OC(F)(F)F)cc4)[C@@H](C(=O)NCc4ccc(OC(F)(F)F)cc4)C3)c2s1` [Example 993, (R)-4-(5-chloro-2-diethylamino-thiazolo[4,5-d]pyrimidin-7-yl)-1-(4-trifluoromethoxy-benzenesulfonyl)-piperazine-2-carboxylic acid 4-trifluoromethoxy-benzylamide], the IC50 in test [1] (setting [5]) and in test [2] (setting [6]) was more than 1000 nM in each case.
In the case of `CN(C)c1ccc(CNC(=O)[C@H]2CN(C(=O)CN3CCCCC3)CCN2S(=O)(=O)c2ccc(I)cc2)cc1` [Example 158, (R)-1-(4-iodo-benzenesulfonyl)-4-(2-piperidin-1-yl-acetyl)-piperazine-2-carboxylic acid 4-dimethylamino-benzylamide], the half-inhibitory concentration (IC50) in test [1] (setting [3]) and in test [2] (setting [4]) was more than 1000 nM each time.
On to `CC(C)c1ccc(CNC(=O)[C@H]2CN(C(=O)CC#N)CCN2S(=O)(=O)c2ccc(C(F)(F)F)cc2)cc1` [Example 258, (R)-4-(2-cyano-acetyl)-1-(4-trifluoromethyl-benzenesulfonyl)-piperazine-2-carboxylic acid 4-isopropyl-benzylamide], for which the IC50 in test [1] (setting [3]) and in test [2] (setting [4]) was less than 100 nM throughout.
Turning to `CCCc1ccc(CNC(=O)[C@H]2CN(c3nc4cc(C(=O)OC(C)(C)C)ncc4s3)CCN2S(=O)(=O)c2ccc(OC(F)(F)F)cc2)cc1` [Example 1081, 2-[(R)-3-(4-propyl-benzylcarbamoyl)-4-(4-trifluoromethoxy-benzenesulfonyl)-piperazin-1-yl]-thiazolo[5,4-c]pyridine-6-carboxylic acid tert-butyl ester], the 50% inhibitory concentration (IC50) in test [1] (setting [5]) and in test [2] (setting [6]) was less than 100 nM throughout.
In the case of `CCC(F)(F)c1ccc(CNC(=O)[C@H]2CN(C(=O)Nc3ccnc(C(=O)N4CCCC4)c3)CCN2S(=O)(=O)c2ccc(OC(F)(F)F)cc2)cc1` [Example 514, (R)-4-(4-trifluoromethoxy-benzenesulfonyl)-piperazine-1,3-dicarboxylic acid 3-[4-(1,1-difluoro-propyl)-benzylamide] 1-{[2-(pyrrolidine-1-carbonyl)-pyridin-4-yl]-amide}], the IC50 in test [1] (setting [3]) and in test [2] (setting [4]) was less than 100 nM throughout.
Turning to `CC(C)c1ccc(CNC(=O)[C@H]2CN(c3cnc(C(=O)O)cn3)CCN2S(=O)(=O)c2ccc(C(F)(F)F)cc2)cc1` [Example 9, (R)-3-(4-isopropyl-benzylcarbamoyl)-4-(4-trifluoromethyl-benzenesulfonyl)-3,4,5,6-tetrahydro-2H-[1,2′]bipyrazinyl-5′-carboxylic acid], the half-inhibitory concentration (IC50) in test [1] (setting [3]) and in test [2] (setting [4]) was less than 100 nM throughout.
